# According to patent US9447103B2, “Inauhzin analogues that induce P53, inhibit cell growth, and have antitumor activity” (Indiana University Research and Technology Corp., priority 2012, dated 2016):
# Several values for one entry are separate records, joined by “and”; a condition that tells them apart may be missing. Equal values may be shown once. Entries after “also recorded” stand apart in the source; their conditions may differ. Read-outs that look alike come from different tables or passages of the source.
# Experiments:
# [1] = test system: p53; test: p53 induction by immunoblotting (IB), H460 and/or HCT116^+/+ cells (line not singled out); type: cell-based, human; settings: 18 hrs; for p53 induction / activation: synthetic analogs, IB, 0.5, 2, 10 μM, compared to INZ; for p53 induction at 0.5 μM: IB
# Excerpt: Initial Inauhzin analogs were purchased and tested the activity on H460 and HCT116^p53+/+ by IB.
# This study also investigated the activity of the compounds in cell-based assays for their ability to induce p53 levels in p53 containing human colon cancer HCT116^+/+ cells and/or human lung cancer H460 cells using immunoblotting (IB) (FIG. 1 and FIG. 8). […] Both triazino[5,6-b]indol (G1) and phenothiazine (G2) are essential functional groups for p53 induction. […] Therefore, further attention was focused on the structural modifications of the pharmacologically active core: triazino[5,6-b]indol or phenothiazine. Modifications included extension of carbon chain length on R1 (14) (FIG. 2B), the substitution on the phenothiazine ring (G2) (6-13) (FIG. 2A) or on the triazino[5,6-b]indol ring (G1) (15-36) (FIGS. 2B-2D).
# (§1) Cell Culture and Immunoblotting Analysis.
# [2] = test system: H1299 cells and HCT116^−/− cells; test: Cell growth inhibition (WST), statements covering p53-null lines; settings: in contrast to p53-containing cells
# Protocol: (§2) The EC50 values for their ability to inhibit cell growth were calculated through serial dilution of their concentrations with the highest concentration at 50 μM.
# (§3) Human lung carcinoma H460, non-small-cell lung cancer H1299, human colon cancer HCT116 (HCT116^+/+), and human embryonic fibroblast WI-38 were bought from the American Type Culture Collection (ATCC). […] Those cell lines were cultured in Dulbecco's modified Eagle's medium supplemented with 10% fetal bovine serum, 100 U per mL penicillin, and 100 U per mL streptomycin. Compounds were dissolved in DMSO and diluted directly into the medium to the indicated concentrations; 0.1% DMSO was used as a control.
# (§4) Cell Viability Assay. To assess cell growth, the cell counting kit (Dojindo Molecular Technologies Inc., Gaithersburg, Md.) was used according to manufacturer's instructions. Cell suspensions were seeded at 3,000 cells per well in 96-well culture plates and incubated overnight at 37° C. Compounds were added into the plates and incubated at 37° C. for 72 hrs. Cell growth inhibition was determined by adding WST-8 at a final concentration of 10% to each well, and the absorbance of the samples was measured at 450 nm using a Microplate Reader (Molecular Device, SpecrtraMax M5^e). EC50 values were determined by the Hill equation using Igor 4.01 (Lake Oswego, Oreg., USA).
# [3] = test system: H460 and HCT116^+/+ cells; test: Cell growth inhibition (WST), statements covering both p53-containing lines; type: cell-based, human; settings: for EC90 fold lower than INZ: H460 and HCT116^+/+; for EC90: Homo sapiens, H460 and HCT116^+/+ together, read-out: EC90 values, range over H460 and HCT116^+/+
# Excerpt: as §1
# [4] = test system: HCT116^+/+; test: Cell viability assay (3-day WST-8), HCT116^+/+; type: cell-based, human; settings: for fold higher potency than INZ in growth inhibition: versus INZ
# Protocol: (§5) Those cell lines were cultured in Dulbecco's modified Eagle's medium supplemented with 10% fetal bovine serum, 100 U per mL penicillin, and 100 U per mL streptomycin. Compounds were dissolved in DMSO and diluted directly into the medium to the indicated concentrations; 0.1% DMSO was used as a control.
# (§6) Cell Viability Assay. To assess cell growth, the cell counting kit (Dojindo Molecular Technologies Inc., Gaithersburg, Md.) was used according to manufacturer's instructions. Cell suspensions were seeded at 3,000 cells per well in 96-well culture plates and incubated overnight at 37° C. Compounds were added into the plates and incubated at 37° C. for 72 hrs. Cell growth inhibition was determined by adding WST-8 at a final concentration of 10% to each well, and the absorbance of the samples was measured at 450 nm using a Microplate Reader (Molecular Device, SpecrtraMax M5^e).
# [5] = test system: H460; test: Cell viability assay (3-day WST-8), H460; type: cell-based, human; settings: for fold higher potency than INZ in growth inhibition: H460, versus INZ; for EC90: calculated from EC50 and Hill slope, read-out: EC90 cell growth inhibition
# Protocol: as §5, §6
# [6] = test system: H460 orthotopic lung tumors; test: H460 orthotopic lung tumor model, bioluminescent imaging; type: in vivo, SCID mice; settings: i.p. 50 mg/kg once a day for 3 weeks, H460-Luc cells in pleural space
# Protocol: FIGS. 13A and 13B show the effects of compound 37 on the growth of H460 orthotopic lung tumors. Each mouse was dosed once a day via i.p. with either vehicle or compound 37 (50 mg/kg) for 3 weeks starting 4 days after implantation of 5×10^5 H460-Luc tumor cells into the pleural space of the SCID mice. […] Each value is a mean of five animals ±SD. FIG. 13B is bioluminescent imaging (BLI) of orthotopic lung tumors in SCID mice.
# The effects of compound 8 on the growth of H460 orthotopic lung tumors. Each mouse was dosed once a day via i.p. with either vehicle or 14 (50 mg/kg) for 3 weeks starting 4 days after implantation of 5×10^5 H460-Luc tumor cells into the pleural space of the SCID mice. […] Each value is a mean of five animals ±SD.
# [7] = test system: HCT116^−/−; test: Cell viability assay (3-day WST-8), HCT116^−/− (p53 null)
# Protocol: as §2, §3, §4
# [8] = test system: H1299; test: Cell viability assay (3-day WST-8), H1299 (p53 null)
# Protocol: as §5, §6
compound,measurement,setting,value
"CCC(Sc1nnc2c(n1)[nH]c1ccccc12)C(=O)N1c2ccccc2Sc2ccc(Cl)cc21 (stereo not drawn) [Compound 6, 2-((5H-[1,2,4]triazino[5,6-b]indol-3-yl)thio)-1-(2-chloro-10H-phenothiazin-10-yl)butan-1-one]",p53 induction / activation,[1],remained active in p53 induction
"CCC(Sc1nnc2c(n1)[nH]c1ccccc12)C(=O)N1c2ccccc2Sc2ccc(OC)cc21 (stereo not drawn) [Compound 7, 2-((5H-[1,2,4]triazino[5,6-b]indol-3-yl)thio)-1-(2-methoxy-10H-phenothiazin-10-yl)butan-1-one]",p53 induction / activation,[1],remained active in p53 induction
"CCC(Sc1nnc2c(n1)[nH]c1ccccc12)C(=O)N1c2ccccc2Cc2ccccc21 (stereo not drawn) [Compound 8, 2-((5H-[1,2,4]triazino[5,6-b]indol-3-yl)thio)-1-(acridin-10(9H)-yl)butan-1-one]",inhibitory activity in p53-null cells,[2],much less effective
same,EC90 fold lower than INZ,[3]; versus INZ,3-10 fold
same,EC90,[3],3.5 to 10 µM
same,EC90 fold lower than INZ,"[4]; HCT116+/+ cells, b177",5 fold
same,fold higher potency than INZ in growth inhibition,[4]; HCT116^+/+,more than 2 fold
same,fold higher potency than INZ in growth inhibition,"[4]; HCT116^+/+, listed as INZ-14",over 2 fold
same,EC90,"[4]; Homo sapiens, HCT-116, HCT116+/+ cells, b177, read-out: EC90",~10 µM
same,EC50,"[4]; Homo sapiens, HCT-116, HCT116+/+ cells, values of b177 (differ from Table 1), read-out: EC50 growth inhibition",1.41 µM
same,EC90,"[4]; Homo sapiens, HCT-116, HCT116^+/+, p53 wild type, calculated from EC50 and Hill slope, read-out: EC90 cell growth inhibition",10 µM
same,fold higher potency than INZ in growth inhibition,[5],more than 2 fold
same,EC90,"[5]; Homo sapiens, NCI-H460, H460, p53 wild type",3.5 µM
same,"bioactivity against orthotopic lung cancers (tumor burden by BLI, words)",[6],exhibited highly promising bioactivity against orthotopic lung cancers
same,p53 induction at 0.5 μM,[1],drastically induced p53
same,p53 induction / activation,[1],more potent in p53 activation than their parental compound INZ
"CCCCC(Sc1nnc2c(n1)[nH]c1ccccc12)C(=O)N1c2ccccc2Sc2ccccc21 (stereo not drawn) [Compound 14, 2-((5H-[1,2,4]triazino[5,6-b]indol-3-yl)thio)-1-(10H-phenothiazin-10-yl)hexan-1-one]",p53 induction / activation,[1],lower activity for p53 induction
"CCC(Sc1nnc2c(n1)[nH]c1cc(OC)ccc12)C(=O)N1c2ccccc2Sc2ccccc21 (stereo not drawn) [Compound 18, 2-((7-methoxy-5H-[1,2,4]triazino[5,6-b]indol-3-yl)thio)-1-(10H-phenothiazin-10-yl)butan-1-one]",p53 induction / activation,[1],marked decrease in p53 activation
"CCC(Sc1nnc2c(n1)[nH]c1cc(C)ccc12)C(=O)N1c2ccccc2Sc2ccccc21 (stereo not drawn) [Compound 19, 2-((7-methyl-5H-[1,2,4]triazino[5,6-b]indol-3-yl)thio)-1-(10H-phenothiazin-10-yl)butan-1-one]",inhibitory activity in p53-null cells,[2],much less effective
same,EC90 fold lower than INZ,[3]; versus INZ,1.5 fold
same,EC90,[3],20 to 30 µM
same,p53 induction at 0.5 μM,[1],significant effect on p53 induction compared to INZ
"CCC(Sc1nnc2c3ccccc3n(C(=O)CCCCC3CC4NC(=O)NC4S3)c2n1)C(=O)N1c2ccccc2Sc2ccccc21 (stereo not drawn) [Compound 20, 5-(5-oxo-5-(3-((1-oxo-1-(10H-phenothiazin-10-yl)butan-2-yl)thio)-5H-[1,2,4]triazino[5,6-b]indol-5-yl)pentyl)tetrahydro-1H-thieno[2,3-d]imidazole-2(5H)-one]",p53 induction / activation,[1],as effective as INZ
"CCC(Sc1nnc2c3ccccc3n(C(=O)c3ccccc3)c2n1)C(=O)N1c2ccccc2Sc2ccccc21 (stereo not drawn) [Compound 21, 2-((5-benzoyl-5H-[1,2,4]triazino[5,6-b]indol-3-yl)thio)-1-(10H-phenothiazin-10-yl)butan-1-one]",inhibitory activity in p53-null cells,[2],much less effective
"CCOC(=O)Cn1c2ccccc2c2nnc(SC(CC)C(=O)N3c4ccccc4Sc4ccccc43)nc21 (stereo not drawn) [Compound 28, Ethyl 2-(3-((1-oxo-1-(10H-phenothiazin-10-yl)butan-2-yl)thio)-5H-[1,2,4]triazino[5,6-b]indol-5-yl)acetate]",p53 induction / activation,[1],essentially inactive
"CCC(Sc1nnc2c3ccccc3n(CC(=O)O)c2n1)C(=O)N1c2ccccc2Sc2ccccc21 (stereo not drawn) [Compound 29, 2-(3-((1-oxo-1-(10H-phenothiazin-10-yl)butan-2-yl)thio)-5H-[1,2,4]triazino[5,6-b]indol-5-yl)acetic acid]",p53 induction / activation,[1],essentially inactive
"CCC(Sc1nnc2c3ccccc3n(CCO)c2n1)C(=O)N1c2ccccc2Sc2ccccc21 (stereo not drawn) [Compound 30, 2-((5(2-hydroxyethyl)-5H-[1,2,4]triazino[5,6-b]indol-5-yl)thiol)-1-(10H-phenothiazin-10-yl)butan-1-one]",EC50,"[7]; read-out: EC50 cell growth inhibition, HCT116^−/−, p53 null, 72 hrs",7.8 ± 3.4 µM
same,inhibitory activity in p53-null cells,[2],much less effective
same,EC90 fold lower than INZ,[3]; versus INZ,5 fold
same,cell growth inhibition,[3]; compared with INZ or compound 8,comparable to compound 8
same,EC50,"[4]; HCT116^+/+, p53 wild type, 72 hrs, read-out: EC50 cell growth inhibition",0.8 ± 0.5 µM
same,EC90,"[4]; HCT116^+/+, p53 wild type, calculated from EC50 and Hill slope, read-out: EC90 cell growth inhibition",4.6 µM
same,EC50,"[5]; H460, p53 wild type, 72 hrs, average of triplicates, read-out: EC50 cell growth inhibition",3.5 ± 0.4 µM
same,EC90,"[5]; H460, p53 wild type",~7.7 µM and 7.7 µM
same,EC50,"[8]; read-out: EC50 cell growth inhibition, H1299, p53 null, 72 hrs",16.6 µM
same,p53 induction / activation,[1],comparable to compound 8; also recorded: more potent in p53 activation than their parental compound INZ
"C#CCCn1c2ccccc2c2nnc(SC(CC)C(=O)N3c4ccccc4Sc4ccccc43)nc21 (stereo not drawn) [Compound 32, 2-((5(but-3-yn-1-yl)-5H-[1,2,4]triazino[5,6-b]indol-3-yl)thiol)-1-(10H-phenothiazin-10-yl)butan-1-one]",p53 induction / activation,[1],significant decrease in activity
"CCC(Sc1nnc2c3ccccc3n(CC(=O)c3ccccc3)c2n1)C(=O)N1c2ccccc2Sc2ccccc21 (stereo not drawn) [Compound 33, 2-((5-(2-oxo-2-phenylethyl)-5H-[1,2,4]triazino[5,6-b]indol-3-yl)thiol)-1-(10H-phenothiazin-10-yl)butan-1-one]",p53 induction / activation,[1],significant decrease in activity
"CCC(Sc1nnc2c3ccccc3n(CCO)c2n1)C(=O)N1c2ccccc2Cc2ccccc21 (stereo not drawn) [Compound 37, 1-(acridin-10(9H)-yl)-2-((5-(2-hydroxyethyl)-5H-[1,2,4]triazino[5,6-b]indol-3-yl)thio)butan-1-one]",EC90,"[7]; Homo sapiens, HCT-116, read-out: EC90 cell growth inhibition, HCT116^−/−, p53 null, calculated from EC50 and Hill slope",> 50 µM
same,inhibitory activity in p53-null cells,[2],much less effective
same,potency improvement compared to INZ in cancer growth inhibition,[3]; versus INZ,5- to 10 fold
same,fold higher potency than INZ in growth inhibition,[4]; HCT116^+/+,5 fold
same,fold higher potency than INZ in growth inhibition,[5],10 fold
same,EC90,"[8]; Homo sapiens, NCI-H1299, read-out: EC90 cell growth inhibition, H1299, p53 null, calculated from EC50 and Hill slope",> 50 µM
same,p53 induction / activation,[1],more potent in p53 activation than their parental compound INZ
